Patent US20230003644A1, “PHOTONIC CHIP FOR MONITORING ACTIVITIES OF LIVING CELLS” (THE UNIVERSITY OF HONG KONG, priority 2021, published 2023)

Assays:
[1] = system: human monocytic THP-1 cells; experiment: GaN chipscope monitoring of cell differentiation (cell area and roundness from images); assay type: cell-based; conditions: THP-1 monocyte to M0, PMA 25 ng/mL, 3-9 h after stimulation
Excerpt: The cell refractive index is an intrinsic optical parameter that varies with different cell phenotypes. This inspired the exploration of whether the sensing platform could track online the dynamics of cell differentiation and distinguish the different cell phenotypes. In this experiment, human monocytic THP-1 cells are employed as the cell model due to their multi-phenotypic characteristics, including the initial suspended monocyte, adhered macrophage (M0), and two major polarized states (adhered M1 and M2). Here, THP-1 cells differentiated from suspended state (monocyte) to adhered M0 state by phorbol 12-myristate 13-acetate (PMA), followed by induction of the resultant M0 cells to polarize to M1 by LPS/FN-gamma. The process is monitored throughout by the GaN chipscope system (FIG. 10a).
Consistent with the photocurrent signal, the imaging system recorded a fast cell rolling behavior in the initial 30 min before the cells settled down (FIG. 10b). PMA (25 ng/mL) is then loaded to trigger monocyte to macrophage differentiation. It is evident from the photocurrent signal that monocytes responded strongly against PMA in 3-9 h after stimulation, and this response became mild in the following 11 h (FIG. 10b).
Phorbol-12-myristate-13-acetate (PMA, MCE, 25 ng/mL) was used to induce monocytes differentiation to M0 macrophages. […]

[2] = system: THP-1 cells; experiment: Flow cytometry of macrophage surface markers CD11b and CD80; assay type: cell-based, human; conditions: THP-1 cells after incubation with PMA
Procedure: Phorbol-12-myristate-13-acetate (PMA, MCE, 25 ng/mL) was used to induce monocytes differentiation to M0 macrophages. For further polarization, 100 ng/mL lipopolysaccharide (LPS, Thermo) and 20 ng/mL interferon-γ (IFN-γ, Thermo) were added to the culture to induce M1 generation. The cells were stimulated to M0 and M1 macrophages for 24 h. Flow cytometry and immunofluorescence staining were used to assess the expression of macrophage-specific cell surface marker: CD11 b for monocyte/macrophage differentiation and CD 80 for M1 macrophage polarization.
The harvested cells were washed with cold PBS and then the Fc receptor binding sites were blocked by incubating with Human TruStain FcX™ (422302, Biolegned) on ice for 20 min. The cells were then incubated with either FITC labeled CD 11 b (301329, Biolegend) or FITC labeled CD 80 (305206, Biolegend) in darkness for another 30 min. After centrifugation, the cells were washed twice with FACS buffer (PBS containing 2% BSA) and immediately measured by the flow cytometer Novoexpress (Agilent).

[3] = system: NIH 3T3 cells; experiment: Label-free monitoring of cell adhesion, morphology and intracellular dynamics on the LED/GaN chipscope (photocurrent and DIC imaging); assay type: cell-based
Excerpt: As a monolithic integration design of the chip, the same shared sapphire substrate can realize the light coupling from the LED to the PD without any external optics, as shown in FIG. 5a. In particular, when the lights emitted from LED reached external media with a low RI (i.e., nmedia<nsapphire), total internal reflection occurred at the sapphire/media interface, causing some light to be reflected into the light-detecting region. The intensity of the reflected light is then detected by the PD. Since the critical angle enlarges as the refractive index increases, less light is reflected back to the PD, resulting in a decrease in the photocurrent. When the cells are in contact with the chip surface, the sensor provides a rapid photocurrent response due to the obvious RI change from sapphire-culture medium (1.78 to 1.337) to sapphire-cells (1.78 to 1.343-1.48). Furthermore, the formation of strong cell-substrate adhesion and/or the evolution of cell morphology could also result in changes in the recorded photocurrent.
NIH 3T3 cells are used in the present study due to their rapid adhesion response and significant cell area changes during spreading. First performed a live/dead assay test to evaluate the potential phototoxicity of the chip to the cells. […] Next, after the chip was stabilized in the incubator at 37° C., the cell suspension was added into the chip chamber. […] Benefitting from the integrated mini-DIC imaging system, we can clearly capture the cell morphology changes in real-time. As shown in the top panel of FIG. 7b, the round cells gradually precipitated onto the chip surface in the first 30 min (step 1), and then started to extend in the next 4 h (step 2). After that, they continued to flatten and formed a dense monolayer sheet covering the entire chip surface (step 3). These observed cell morphology changes closely matched the optical response of the chip, indicating the successful integration of GaN chip-based sensing and DIC imaging units in our system for cellular activity monitoring. Additionally, to mimic the cell detachment process (step 4), we treated the cells with sodium dodecyl sulfate (SDS), a known surfactant that can detach and lyse adhering cells from culture dishes or flasks.
• Cells (NIH 3T3, 0.3 million/mL, 500 uL, 37° C.) were seeded on the LED chip and transferred to the incubator (37° C.). Then the ammeter started to monitor the optical current at specific time points. The control experiment was performed by monitoring the solo cell culture medium with an identical chip (DMEM, 500 uL, 37° C.). • The bright-field images of cells were collected at specific time points to monitor the initial stage of cells adhesion and extension. The cells were cultured on sapphire, the substrate of which was identical with the top layer of LED chips.
3T3 cells were grown on the chip surface for overnight and then were washed once and replaced with HEPES buffer (HBSS). After the system was restabilized, various concentrations of thrombin (MCE) were injected into the cell chamber. The signal dynamics were recorded by a meter.

[4] = system: human lung adenocarcinoma cells (A549); experiment: GaN chipscope drug screening: cytotoxicity of an anticancer drug on an A549 cell monolayer (photocurrent and imaging); assay type: cell-based; conditions: for decrease of cell confluence: after 24 h incubation
Procedure: The A549 cells are seeded in the chamber of the platform and cultured for 24 h for fully spreading. Afterward, 10 μM, 30 μM or 50 μM of β-lapachone is added into the chambers, respectively.
Additionally, the photocurrent curves offered valuable practical information for the study of drug-cell interactions. First, by plotting the slope of the tangent line, the speed of cell response at different periods was analyzed. […] Indeed, a higher dose is more toxic and induces faster cell death. Thirdly, by coupling the imaging system, we were able to qualitatively and quantitatively analyze the cell-drug interactions. As shown in FIG. 9b-d, the cells shrank in a dose-dependent manner after β-lapachone treatment. Specifically, cells treated with a lower dose (10 μM) slowly shrank over time, but there is no obvious increase in intercellular spaces during the 24 h. […] It is believed that the increase in photocurrent in higher dose-treated cells is contributed by both cell morphology changes as well as by cell intracellular dynamics alternation. Further, the cell confluency is calculated based on the photos taken by the imaging system.

[5] = system: human lung adenocarcinoma cells (A549); experiment: as above; assay type: cell-based; conditions: A549, 5 hours of drug treatment
[6] = system: intracellular Ca2+; experiment: Living cell calcium tracking (Fluo-3 fluorescence); assay type: cell-based; conditions: low-dose thrombin (2 U/mL)
Procedure: After the cells were grown on the confocal dish for 24 h, they were washed by PBS and cultured in living cell fluorescence imaging medium (Thermo) with the calcium indicator (Fluo-3, Invitrogen, […]) and pluronic F-127 (0.02%) in incubator for 1 h. They were then washed by fresh culture medium twice and incubated for a further 30 min to allow complete de-esterification of intracellular acetoxymethyl esters. The living cell fluorescent images were then captured by fluorescence microscope (Zeiss) with the frame rate of 1 side/min.

CCCCCCCCCCCCCC(=O)O[C@@H]1[C@@H](C)[C@@]2(O)[C@@H](C=C(CO)C[C@]3(O)C(=O)C(C)=C[C@@H]23)[C@@H]2C(C)(C)[C@]12OC(C)=O [PMA, phorbol 12-myristate 13-acetate]
increase in cell spreading area [1]: 137% | expression of CD11b [2]: significantly increased

CCCCCCCCCCCCOS(=O)(=O)[O-].[Na+] [SDS, sodium dodecyl sulfate]
rapid increase of photocurrent signal after addition ([3]; 3T3 monolayer, cell detachment step): 4.24% | detachment of cell monolayer from chip surface ([3]; 3T3 monolayer, within a few seconds of loading): completely detached

Cc1ccc2c(c1)C(=O)C1(O)CCN(c3ccccc3)C1=N2 (centres unmarked) [blebbistatin]
cell morphology after treatment (imaging) ([3]; 3T3 cells, 50 μM, next 1 h, increased cell gaps and dendritic morphologies): gradually shrank | increase of relative optical current compared to the control group ([3]; 3T3 cells, blebbistatin 50 μM, treated for 50 min): 1.02%

CC1(C)CCC2=C(O1)c1ccccc1C(=O)C2=O [β-lapachone]
reaction time of the cells from photocurrent curve ([4]; A549, 10 μM): 20.2 h | reaction time of the cells from photocurrent curve ([4]; A549, 30 μM): 11.6 h | reaction time of the cells from photocurrent curve ([4]; A549, 50 μM): 12.5 h | cytotoxicity in A549 cells (photocurrent increase with drug concentration) ([4]; A549, 10, 30, 50 μM): dose-depend cytotoxicity | speed of cell response (slope of photocurrent curve) at 50 μM relative to 10 μM ([4]; A549, first 5 h of stimulation): 6.05 times | speed of cell response (slope of photocurrent curve) at 50 μM relative to 30 μM ([4]; A549, first 5 h of stimulation): 2.85 times | decrease of cell confluence ([4]; A549, high dose (50 μM)): 23.1% | decrease of cell confluence ([4]; A549, low dose (10 μM)): 0% | decrease of cell confluence ([4]; A549, medium dose (30 μM)): 19.0% | photocurrent response monitored by the LED sensor during drug treatment [5]: gradually increased

thrombin
time at which photocurrent reached a plateau ([3]; 3T3 monolayer, thrombin 150 U/mL): 50 min | maximal change (increase) of photocurrent ([3]; 3T3 monolayer, thrombin high dose 150 U/mL): 1.66% | decrease of photocurrent signal ([3]; 3T3 monolayer, thrombin low dose 2 U/mL, first 10 min, returned to initial level in next 30 min): 0.94% | calcium fluorescence response of living cells [6]: biphasic cell response
